Reference: US20070021419A1, “2-Aminophenyl-4-phenylpyrimidines as kinase inhibitors” (Cyclacel Limited, priority 2003, published 2007)

Experiments:
[1] = biological target: CDK2/cyclin E (Homo sapiens, UniProt P24941); assay: Kinase assay, radioactive phosphate incorporation, CDK2/cyclin E; format: biochemical; conditions: 100 μM ATP, 30° C.; read-out: Kinase inhibition IC50 CDK2/cyclin E
Method in brief: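 Recombinant kinase complexes (2-4 μg active enzyme) were incubated at 30° C with polypeptide substrates in buffer of 25 mM β-glycerophosphate, 20 mM MOPS, 5 mM EGTA, 1 mM DTT, 1 mM […], pH 7.4. Reactions began with 15 mM MgCl2 plus 100 μM ATP spiked with [γ-32P]-ATP. Substrate-incorporated radioactivity was counted after filter capture.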

[2] = biological target: PLK-1 (Homo sapiens, UniProt P53350); assay: Kinase assay, radioactive phosphate incorporation, PLK-1; format: biochemical; conditions: 100 μM ATP, 30° C.; read-out: Kinase inhibition IC50 PLK-1
Description: The compounds from the examples above were investigated for their ability to inhibit the enzymatic activity of various protein kinases. This was achieved by measurement of incorporation of radioactive phosphate from ATP into appropriate polypeptide substrates. Recombinant protein kinases and kinase complexes were produced or obtained commercially. Assays were performed using 96-well plates and appropriate assay buffers (typically 25 mM β-glycerophosphate, 20 mM MOPS, 5 MM EGTA, 1 mM DTT, 1 mM Na3VO3, pH 7.4), into which were added 2-4 μg of active enzyme with appropriate substrates. The reactions were initiated by addition of Mg/ATP mix (15 mM MgCl2+100 μM ATP with 30-50 kBq per well of [γ-^32P]-ATP) and mixtures incubated as required at 30° C. Reactions were stopped on ice, followed by filtration through p81 filterplates or GF/C filterplates (Whatman Polyfiltronics, Kent, UK). After washing 3 times with 75 mM aq orthophosphoric acid, plates were dried, scintillant added and incorporated radioactivity measured in a scintillation counter (TopCount, Packard Instruments, Pangbourne, Berks, UK). Compounds for kinase assay were made up as 10 mM stocks in DMSO and diluted into 10% DMSO in assay buffer.

[3] = system: A549; assay: 72-h MTT cytotoxicity assay, A549; format: cell-based; conditions: Homo sapiens, read-out: 72-h MTT IC50 A549, A549 cell line
Method in brief: (§1)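 First, cells seeded per doubling time rest overnight at 37° C. Next, triplicate wells receive a 1/3 compound dilution series for 72 h. Finally, MTT from a 5 mg/mL stock is applied for 4 h in darkness before DMSO dissolves the dye.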

[4] = system: Saos-2; assay: 72-h MTT cytotoxicity assay, Saos-2; format: cell-based; conditions: Homo sapiens, read-out: 72-h MTT IC50 Saos-2, Saos-2 cell line
Method in brief: as §1

[5] = system: HT29; assay: 72-h MTT cytotoxicity assay, HT29; format: cell-based; conditions: Homo sapiens, HT-29, read-out: 72-h MTT IC50 HT29, HT29 cell line
Method in brief: as §1

[6] = system: transformed human cell lines (A549, HT29, Saos-2); assay: 72-h MTT cytotoxicity assay, average of cell lines; format: cell-based; conditions: read-out: 72-h MTT IC50 Average, average of A549, HT29, Saos-2
Method in brief: as §1

Chain of PLK-1 (P53350 whole entry, species assumed): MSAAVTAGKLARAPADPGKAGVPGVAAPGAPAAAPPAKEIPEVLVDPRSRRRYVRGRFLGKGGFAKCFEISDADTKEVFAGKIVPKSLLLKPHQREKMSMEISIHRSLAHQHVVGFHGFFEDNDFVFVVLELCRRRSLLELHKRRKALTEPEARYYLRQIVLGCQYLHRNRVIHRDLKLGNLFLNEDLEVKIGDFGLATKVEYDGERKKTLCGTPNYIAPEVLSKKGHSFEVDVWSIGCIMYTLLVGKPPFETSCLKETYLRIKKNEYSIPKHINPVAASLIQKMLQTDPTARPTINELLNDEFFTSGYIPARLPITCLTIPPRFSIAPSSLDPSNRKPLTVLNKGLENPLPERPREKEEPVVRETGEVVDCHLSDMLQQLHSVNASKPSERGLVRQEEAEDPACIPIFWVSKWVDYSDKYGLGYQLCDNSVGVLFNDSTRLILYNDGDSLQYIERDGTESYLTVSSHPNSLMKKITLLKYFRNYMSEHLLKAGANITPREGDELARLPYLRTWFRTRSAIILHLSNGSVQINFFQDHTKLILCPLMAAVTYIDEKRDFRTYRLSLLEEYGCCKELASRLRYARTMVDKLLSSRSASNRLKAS

Structure (SMILES) | IC50 [1] [µM] | IC50 [2] [µM] | IC50 [3] [µM] | IC50 [4] [µM] | IC50 [5] [µM] | IC50 [6] [µM]
CC(=O)Nc1cccc(-c2ccnc(Nc3ccc(O)cc3)n2)c1 [Compound 11, N-{3-[2-(4-Hydroxy-phenylamino)-pyrimidin-4-yl]-phenyl}-acetamide] | 0.25 | 6.9 | 8.3 | 7.1 | 7.5 | 7.6 ± 0.6
O=[N+]([O-])c1ccc(Nc2nccc(-c3cccc([N+](=O)[O-])c3)n2)cc1 [Compound 2, (4-Nitro-phenyl)-[4-(3-nitro-phenyl)-pyrimidin-2-yl]-amine] |  | 6.5 |  |  |  | 
CCN(C(C)=O)c1cccc(-c2ccnc(Nc3ccc(O)cc3)n2)c1 [Compound 10, N-Ethyl-N-{3-[2-(4-hydroxy-phenylamino)-pyrimidin-4-yl]-phenyl}-acetamide] | 0.16 | 4.8 | 8 | 5.4 | 9.7 | 7.7 ± 2.2

Continued, in another order:

IC50 [1] [µM] | IC50 [2] [µM] | Structure (SMILES) | IC50 [3] [µM] | IC50 [4] [µM] | IC50 [5] [µM] | IC50 [6] [µM]
0.045 | 13.7 | CNc1cccc(-c2ccnc(Nc3ccc(O)cc3)n2)c1 [Compound 14, 4-[4-(3-Methylamino-phenyl)-pyrimidin-2-ylamino]-phenol] |  |  |  | 
0.36 | 7.8 | Nc1cccc(-c2ccnc(Nc3ccc(O)cc3)n2)c1 [Compound 15, 4-[4-(3-Amino-phenyl)-pyrimidin-2-ylamino]-phenol] |  |  |  | 
0.55 | 14.5 | CC(=O)N(CC(C)C)c1cccc(-c2ccnc(Nc3ccc(O)cc3)n2)c1 [Compound 13, N-{3-[2-(4-Hydroxy-phenylamino)-pyrimidin-4-yl]-phenyl}-N-isobutyl-acetamide] |  |  |  | 
 | 8.7 | Clc1ccc(Nc2nccc(-c3cccc(Cl)c3)n2)cc1 [Compound 16, (4-Chloro-phenyl)-[4-(3-chloro-phenyl)-pyrimidin-2-yl]-amine] |  |  |  | 
